Experimental data: patent publication US20250042912A1, “NOVEL NON-FLUORINATED QUINOLONE COMPOUND AND USE THEREOF” (priority 2021, published 2025)
≈ marks a conversion by molar mass, not a printed value.

Columns and labels:
[1] = tested on: Staphylococcus epidermidis ATCC 35983; experiment: Minimum inhibitory concentration (MIC) assay, Staphylococcus epidermidis ATCC 35983; type: cell-based; settings: ATCC35983, aerobic culture 35+/-2°C, 16 to 20 hours, read with naked eyes
Experimental: (§1) On the day of the experiment, the compound in the flask was dissolved in 100% DMSO until the concentration of mother liquor was 0.4 mg/mL. If the mother liquor was not used on the same day, it was stored at −80° C. for future use.
(§2) The compound mother liquor and standard antibiotics were subjected to 2-fold gradient dilution with corresponding solvents on a 96-microwell plate (V-bottom) to obtain 100× working solutions (Well 1 to Well 7) in sequence. Among them, the concentrations of the compound were 400 μg/mL, 200 μg/mL, 100 μg/mL, 50 μg/mL, 25 μg/mL, 12.5 μg/mL, 6.25 μg/mL, and 3.125 μg/mL. 100% DMSO was used as growth control (Well 8). As such, the compound motherplate was obtained.
(§3) One day before the experiment, aerobic bacteria (Staphylococcus epidermidis) stored in a cryogenic tube at −80° C. were scribed on an MHA (Cation-adjusted Mueller-Hinton agar) plate. The aerobic bacteria were placed in a 35+/−2° C. incubator for 18-24 hours of aerobic cultivation.
(§4) On the day of the experiment, the plate was taken out, clones were picked from the plate and suspended in physiological saline. Then, the turbidity of the bacterial suspension (containing 1.0-2.0×10^8 CFU/mL) was adjusted to OD600=0.2 by a turbidity meter. Then, the adjusted bacterial suspension was diluted to an appropriate concentration with the assay culture medium: about 5×10^5 CFU/mL for aerobic bacteria, and about 1×10^6 CFU/mL for anaerobic bacteria. As such, the inoculating solution was obtained.
(§5) 2 μl of 2-fold series dilution of 100× high-concentration working solution was transferred from a compound mother plate (prepared in step 1) to a round-bottom 96-well plate, and then 198 μL of bacterial inoculating solution (prepared in step 2) was added to each well to obtain an MIC assay plate. Therefore, the final assay concentrations of the compound were 4 μg/mL, 2 μg/mL, 1 μg/mL, 0.5 μg/mL, 0.25 μg/mL, 0.125 μg/mL, 0.06 μg/mL and 0.03 μg/mL. The total volume of each well on the assay plate was 200 μL: containing 1% DMSO, about 5×10^5 CFU/mL of aerobic bacteria and about 1×10^6 CFU/mL of anaerobic bacteria.
(§6) All assay plates for aerobic bacteria were aerobically cultured at 35+/−2° C. for 16 to 20 hours, and all assay plates for anaerobic bacteria were anaerobically cultured in an anaerobic incubator at 35+/−2° C. for 48 hours.

[2] = tested on: Staphylococcus epidermidis ATCC 12228; experiment: Minimum inhibitory concentration (MIC) assay, Staphylococcus epidermidis ATCC 12228; type: cell-based; settings: ATCC12228, aerobic culture 35+/-2°C, 16 to 20 hours, read with naked eyes
Experimental: as §1, §2, §3, §4, §5, §6

[3] = tested on: acne model mice (Propionibacterium acnes ATCC 6919 injected into the left ear); experiment: Acne model in mice: auricular thickness, redness and swelling of the left ear; type: in vivo, Balb/C mice
Experimental: Experimental strain: Propionibacterium acnes ATCC 6919 (Beijing Biobw Biotechnology Co., Ltd.) Experimental animals: Balb/C mice (Zhejiang Vital River Laboratory Animal Technology Co., Ltd.) Balb/C mice were grouped and numbered, and adaptively fed for one week. On the day of modeling, Propionibacterium acnes was taken, and OD600 was measured using a microplate reader. BH1 culture medium was diluted to OD600=1 (about 5×10^8 CFU/mL), centrifuged to discard supernatant, and the remaining culture was diluted to 1×10^8 CFU/mL with PBS. Once the molding began, the mice were anesthetized with a small animal anesthesia machine, the air flow and isoflurane content of the anesthesia machine were adjusted, and the mice were placed in an anesthesia induction chamber for anesthesia induction. After there were no obvious signs of activity, the mice were taken out and their toes were clamped with tweezers or hemostatic forceps for toe pinching reaction testing, if there was no retraction pain response, the surgery could be performed. The anesthetized mice were placed on a mice plate and fixed, the air flow or isoflurane content was adjusted to maintain anesthesia (isoflurane anesthesia induction content of 3% to 4%, anesthesia maintenance content of 1% to 2%, and air flow rate of 300 mL/min to 500 mL/min). Blank control group: 20 μL of PBS was intracutaneously injected into the left ear of each mouse. Model group, drug group to be tested: 20 μL suspension of Propionibacterium acnes in PBS was intracutaneously injected into the left ear of each mouse. After the injection of Propionibacterium acnes, the mice in each group were administered according to the methods of administration and dosages described in Table 5 at 4 hours, 20 hours, 28 hours, and 44 hours. […] The drugs to be tested included Compound 6, Compound 7, and Compound 12, all of which were in a form of hydrochloride. In this experiment, Compound 6, Compound 7, and Compound 12 all referred to the corresponding hydrochloride drugs with a solvent of 40% DMSO+60% glycerol, the drugs were added into DMSO, heated to 100° C. in a water bath, and then glycerol was added thereto to obtain a bright yellow viscous solution. Administration area: Propionibacterium acnes was injected into the left ear. Administration time: the drugs were administrated at 4 hours, 20 hours, 28 hours, and 44 hours post-injection of Propionibacterium acnes, a total of 4 times. Balb/C mice were anesthetized with a small animal anesthesia machine and isoflurane in Compound 6 group, Compound 7 group, Compound 12 group, and model group. […] Auricular thickness measurement: after Propionibacterium acnes was injected for 48 hours, the auricular thicknesses of mice were measured with a vernier caliper.

In the case of `CN(C)c1cc2c(cn1)-c1ccc3c(=O)c(C(=O)O)cn(C4CC4)c3c1COC2` [Compound 6], the MIC [1] is reported as 0.06 mg/L (≈ 0.153 µM), the MIC [2] is reported as 0.06 mg/L (≈ 0.153 µM) and the “redness and swelling on the left ears of mice” value ([3]; Balb/C mice acne model, macroscopic, after treatment, drugs as hydrochloride, in words) is reported as “reduced to varying degrees”. The “Auricular thickness (% of Blank) Mean ± SD” value ([3]; Balb/C mice, left ear, 48 hours after injection of Propionibacterium acnes, 15 μL applied at 4, 20, 28, 44 hours, drugs as hydrochloride) was 112.71 ± 17.19 % of Blank, the “Auricular thickness Mean ± SD” value ([3]; Balb/C mice, left ear, 48 hours after injection of Propionibacterium acnes, 15 μL applied at 4, 20, 28, 44 hours, drugs as hydrochloride in 40% DMSO+60% glycerol) was 0.51 ± 0.08 mm and the “auricular thicknesses of the left ears of mice after treatment” value ([3]; compared with acne model group, p<0.05, in words) was “significantly reduced”.
